Assay results published in paper PMC6149824, “Design and Synthesis of New Benzothiazole Compounds as Selective hMAO-B Inhibitors” (Molecules : A Journal of Synthetic Chemistry and Natural …, 2017).

What was measured:
hMAO-A = target: T1, hMAO-A (Homo sapiens, UniProt P21397); test: in vitro fluorometric hMAO-A inhibition assay (Amplex Red); format: biochemical; conditions: read-out: MAO A Inhibition %
T1 sequence (P21397 1-527): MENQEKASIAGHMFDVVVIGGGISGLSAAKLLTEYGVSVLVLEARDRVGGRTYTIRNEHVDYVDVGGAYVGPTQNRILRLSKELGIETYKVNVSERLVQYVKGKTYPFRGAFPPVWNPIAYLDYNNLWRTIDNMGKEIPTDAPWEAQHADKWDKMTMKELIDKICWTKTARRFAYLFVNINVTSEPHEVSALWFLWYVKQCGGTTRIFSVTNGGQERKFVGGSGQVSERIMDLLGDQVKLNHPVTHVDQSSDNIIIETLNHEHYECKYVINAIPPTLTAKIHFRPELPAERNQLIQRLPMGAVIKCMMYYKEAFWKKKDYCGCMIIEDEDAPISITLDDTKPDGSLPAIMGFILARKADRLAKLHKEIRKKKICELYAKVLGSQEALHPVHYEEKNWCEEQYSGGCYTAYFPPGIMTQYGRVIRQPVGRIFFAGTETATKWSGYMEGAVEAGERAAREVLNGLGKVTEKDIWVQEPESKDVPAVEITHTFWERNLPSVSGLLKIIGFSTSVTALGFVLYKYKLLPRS
Experimental: The in vitro fluorometric enzymatic assay, allowing to sensitively detect monoamine oxidase activity, was applied to investigate hMAO-A and hMAO-B inhibitory potential of compounds 3a–3j. The method was performed in two steps, as previously described. […]
An enzyme inhibition assay was performed according to our recent study. The inhibitor (20 μL/well) and hMAO-A (100 μL/well) or hMAO-B solution (100 μL/well) was added to the fine black-bottom 96-well microtiter plate and the mixture was incubated at 37 °C for 30 min. After the incubation period, the reaction was started by adding a working solution (100 μL/well) ([…] Amplex Red reagent, 1 U/mL horseradish peroxidase and 1 mM p-tyramine) and all pipetting processes were performed using a Biotek Precision XS robotic system (BioTek Instruments, Winooski, VT, USA).
The production of H2O2 and, subsequently, of resorufin was quantified at 37 °C in a BioTek-Synergy H1 microplate reader based on the fluorescence generated (excitation, 535 nm, emission, 587 nm) over a 15 min period, in which the fluorescence increased linearly. Control experiments were carried out simultaneously by replacing the inhibitor solution with 2% DMSO (20 μL). In order to check the probable inhibitory effect of inhibitors on horseradish peroxidase, a parallel reading was achieved by replacing enzyme solutions with 3% H2O2 solution (20 mM 100 μL/well). In addition, the probable capacity of the inhibitors to modify the fluorescence generated in the reaction mixture due to non-enzymatic inhibition was determined by mixing inhibitor and working solutions.
The specific fluorescence emission (used to obtain the final results) was calculated after subtraction of the background activity, which was determined from vials containing all components except the hMAO isoforms, which were replaced by phosphate buffer (100 μL/well). Blank, control and all concentrations of inhibitors were analyzed in quadruplicate and inhibition percent was calculated by using following equation: % Inhibition=(FCt2−FCt1)−(FIt2−FIt1)/FCt2−FCt1×100 where FCt2 is the fluorescence of a control well measured at t2 time; FCt1 is the fluorescence of a control well measured at t1 time; FIt2 is the fluorescence of an inhibitor well measured at t2 time; and FIt1 is the fluorescence of an inhibitor well measured at t1 time.
The IC50 values were calculated from a dose-response curve obtained by plotting the percentage inhibition versus the log concentration with the use of GraphPad PRISM software (version 5.0, GraphPad Software Inc., La Jolla, CA, USA).

- inhibition at 1000 µM (hMAO-A; 10^−3 M): 22.1%
- inhibition at 100 µM (hMAO-A; 10^−4 M): 18.6%
- melting point: 177.2 to 178.6 °C
Compound: COc1ccc2sc(SCC(=O)NN=Cc3ccc([N+](=O)[O-])s3)nc2c1 [Compound 3e, 2-((5-Methoxybenzothiazol-2-yl)thio)-N′-((5-nitrothiophen-2-yl)methylene)acetohydrazide]
